Literature values in patent US12364687B2 (BIOHAVEN PHARMACEUTICAL HOLDING COMPANY LTD., priority 2018, dated 2025).

Conditions: taken with meals

- food effect on exposure: reduced exposure when taken with meals
SMILES: Nc1nc2ccc(OC(F)(F)F)cc2s1 [riluzole, 6-(trifluoromethoxy)benzothiazol-2-amine]
